Laboratory results taken from PubChem BioAssay (NCI).
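96-well plates; 48 h exposure; 5 concentrations. Endpoints by linear interpolation between flanking doses. Not reached: highest tested concentration assigned. The concentration for 50% growth inhibition is given as GI50. TGI: concentration producing complete growth inhibition.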

Assays:
Assay in all cases: DTP human tumour cell line panel, 48 h
786-0 renal = tested on: 786-0 renal
A498 renal = tested on: A498 renal
A549 NSCLC = tested on: A549 NSCLC
ACHN renal = tested on: ACHN renal
BT-549 breast = tested on: BT-549 breast
CAKI-1 renal = tested on: CAKI-1 renal
CCRF-CEM leukemia = tested on: CCRF-CEM leukemia
COLO 205 colon = tested on: COLO 205 colon
DU-145 prostate = tested on: DU-145 prostate
EKVX NSCLC = tested on: EKVX NSCLC
HCC-2998 colon = tested on: HCC-2998 colon
HCT-116 colon = tested on: HCT-116 colon
HCT-15 colon = tested on: HCT-15 colon
HL-60(TB) leukemia = tested on: HL-60(TB) leukemia
HOP-62 NSCLC = tested on: HOP-62 NSCLC
HOP-92 NSCLC = tested on: HOP-92 NSCLC
HS 578T breast = tested on: HS 578T breast
HT29 colon = tested on: HT29 colon
IGROV1 ovarian = tested on: IGROV1 ovarian
K-562 leukemia = tested on: K-562 leukemia
KM12 colon = tested on: KM12 colon
LOX IMVI melanoma = tested on: LOX IMVI melanoma
M14 melanoma = tested on: M14 melanoma
MALME-3M melanoma = tested on: MALME-3M melanoma
MCF7 breast = tested on: MCF7 breast
MDA-MB-231 breast = tested on: MDA-MB-231 breast
MDA-MB-435 = tested on: MDA-MB-435
MOLT-4 leukemia = tested on: MOLT-4 leukemia
NCI-H226 lung = tested on: NCI-H226 lung
NCI-H460 lung = tested on: NCI-H460 lung
NCI-H522 lung = tested on: NCI-H522 lung
NCI/ADR-RES ovarian = tested on: NCI/ADR-RES ovarian
OVCAR-3 ovarian = tested on: OVCAR-3 ovarian
OVCAR-4 ovarian = tested on: OVCAR-4 ovarian
OVCAR-5 ovarian = tested on: OVCAR-5 ovarian
OVCAR-8 ovarian = tested on: OVCAR-8 ovarian
PC-3 prostate = tested on: PC-3 prostate
RPMI-8226 leukemia = tested on: RPMI-8226 leukemia
RXF 393 renal = tested on: RXF 393 renal
SF-268 CNS = tested on: SF-268 CNS
SF-295 CNS = tested on: SF-295 CNS
SF-539 CNS = tested on: SF-539 CNS
SK-MEL-2 melanoma = tested on: SK-MEL-2 melanoma
SK-MEL-28 melanoma = tested on: SK-MEL-28 melanoma
SK-MEL-5 melanoma = tested on: SK-MEL-5 melanoma
SK-OV-3 ovarian = tested on: SK-OV-3 ovarian
SN12C renal = tested on: SN12C renal
SNB-19 CNS = tested on: SNB-19 CNS
SNB-75 CNS = tested on: SNB-75 CNS
SR leukemia = tested on: SR leukemia
SW-620 colon = tested on: SW-620 colon
T-47D breast = tested on: T-47D breast
TK-10 renal = tested on: TK-10 renal
U251 CNS = tested on: U251 CNS
UACC-257 melanoma = tested on: UACC-257 melanoma
UACC-62 melanoma = tested on: UACC-62 melanoma
UO-31 renal = tested on: UO-31 renal

CN(C)S(=O)(=O)c1oc(-c2ccccc2)nc1C#N
GI50 (786-0 renal): 15.3 µM | TGI (786-0 renal): 29.3 µM | GI50 (A498 renal): > 100 µM | TGI (A498 renal): > 100 µM | GI50 (A549 NSCLC): 73.9 µM | TGI (A549 NSCLC): > 100 µM | GI50 (ACHN renal): 14.9 µM | TGI (ACHN renal): 28.6 µM | GI50 (BT-549 breast): 12 µM | TGI (BT-549 breast): 25.1 µM | GI50 (CAKI-1 renal): 10.4 µM | TGI (CAKI-1 renal): 22.1 µM | GI50 (CCRF-CEM leukemia): 1.9 µM | TGI (CCRF-CEM leukemia): 9.32 µM | GI50 (COLO 205 colon): 11.5 µM | TGI (COLO 205 colon): 24.7 µM | GI50 (DU-145 prostate): 15.6 µM | TGI (DU-145 prostate): 29.4 µM | GI50 (EKVX NSCLC): 21.5 µM | TGI (EKVX NSCLC): 52.4 µM | GI50 (HCC-2998 colon): 16.9 µM | TGI (HCC-2998 colon): 31.6 µM | GI50 (HCT-116 colon): 12.6 µM | TGI (HCT-116 colon): 25.6 µM | GI50 (HCT-15 colon): 11.6 µM | TGI (HCT-15 colon): 29.5 µM | GI50 (HL-60(TB) leukemia): 6.58 µM | TGI (HL-60(TB) leukemia): 29.4 µM | GI50 (HOP-62 NSCLC): > 100 µM | TGI (HOP-62 NSCLC): > 100 µM | GI50 (HOP-92 NSCLC): 5.76 µM | TGI (HOP-92 NSCLC): 20.1 µM | GI50 (HS 578T breast): 23.4 µM | TGI (HS 578T breast): 98.4 µM | GI50 (HT29 colon): 16.6 µM | TGI (HT29 colon): 36.1 µM | GI50 (IGROV1 ovarian): 29 µM | TGI (IGROV1 ovarian): > 100 µM | GI50 (K-562 leukemia): 3.58 µM | TGI (K-562 leukemia): 37.8 µM | GI50 (KM12 colon): 28.5 µM | TGI (KM12 colon): 97.9 µM | GI50 (LOX IMVI melanoma): 1.26 µM | TGI (LOX IMVI melanoma): 11.6 µM | GI50 (M14 melanoma): 12.1 µM | TGI (M14 melanoma): 26.7 µM | GI50 (MALME-3M melanoma): 13.4 µM | TGI (MALME-3M melanoma): 30.1 µM | GI50 (MCF7 breast): 12 µM | TGI (MCF7 breast): 31.6 µM | GI50 (MDA-MB-231 breast): 23.5 µM | TGI (MDA-MB-231 breast): 59.2 µM | GI50 (MDA-MB-435): 18.3 µM | TGI (MDA-MB-435): 44.9 µM | GI50 (MOLT-4 leukemia): 2.82 µM | TGI (MOLT-4 leukemia): 11.5 µM | GI50 (NCI-H226 lung): 10 µM | TGI (NCI-H226 lung): 27.9 µM | GI50 (NCI-H460 lung): 22.3 µM | TGI (NCI-H460 lung): 58.9 µM | GI50 (NCI-H522 lung): 2.81 µM | TGI (NCI-H522 lung): 11 µM | GI50 (NCI/ADR-RES ovarian): 29.9 µM | TGI (NCI/ADR-RES ovarian): > 100 µM | GI50 (OVCAR-3 ovarian): 12.9 µM | TGI (OVCAR-3 ovarian): 27.8 µM | GI50 (OVCAR-4 ovarian): 14.8 µM | TGI (OVCAR-4 ovarian): 32 µM | GI50 (OVCAR-5 ovarian): 18.1 µM | TGI (OVCAR-5 ovarian): 36.7 µM | GI50 (OVCAR-8 ovarian): 19 µM | TGI (OVCAR-8 ovarian): 39.6 µM | GI50 (PC-3 prostate): 15.3 µM | TGI (PC-3 prostate): 32.2 µM | GI50 (RPMI-8226 leukemia): 18.9 µM | TGI (RPMI-8226 leukemia): 43.8 µM | GI50 (RXF 393 renal): 14.4 µM | TGI (RXF 393 renal): 28.4 µM | GI50 (SF-268 CNS): 19.6 µM | TGI (SF-268 CNS): 49.8 µM | GI50 (SF-295 CNS): > 100 µM | TGI (SF-295 CNS): > 100 µM | GI50 (SF-539 CNS): 17.6 µM | TGI (SF-539 CNS): 32.4 µM | GI50 (SK-MEL-2 melanoma): 13.8 µM | TGI (SK-MEL-2 melanoma): 28.6 µM | GI50 (SK-MEL-28 melanoma): 16.3 µM | TGI (SK-MEL-28 melanoma): 31.1 µM | GI50 (SK-MEL-5 melanoma): 18.1 µM | TGI (SK-MEL-5 melanoma): 34.1 µM | GI50 (SK-OV-3 ovarian): > 100 µM | TGI (SK-OV-3 ovarian): > 100 µM | GI50 (SN12C renal): 17.2 µM | TGI (SN12C renal): 49.1 µM | GI50 (SNB-19 CNS): 50 µM | TGI (SNB-19 CNS): > 100 µM | GI50 (SNB-75 CNS): 16.1 µM | TGI (SNB-75 CNS): 30.7 µM | GI50 (SR leukemia): 2.56 µM | TGI (SR leukemia): 13.4 µM | GI50 (SW-620 colon): 9.58 µM | TGI (SW-620 colon): 26.2 µM | GI50 (T-47D breast): 16.1 µM | TGI (T-47D breast): 38.5 µM | GI50 (TK-10 renal): 17.4 µM | TGI (TK-10 renal): 31.6 µM | GI50 (U251 CNS): 17.1 µM | TGI (U251 CNS): 32.6 µM | GI50 (UACC-257 melanoma): 15 µM | TGI (UACC-257 melanoma): 29.8 µM | GI50 (UACC-62 melanoma): 18.4 µM | TGI (UACC-62 melanoma): 42.3 µM | GI50 (UO-31 renal): 14.7 µM | TGI (UO-31 renal): 28.2 µM
